Results from patent publication US5231100A, “Antineoplastic modified imidazoacridines” (British Technology Group Limited, priority 1991, dated 1993).
pIC50: −log10 of the molar value. Like-named read-outs stand apart in the source and are kept apart here.

Tests used:
[1] = tested on: mouse L1210 leukemia cells; test: In vitro cytotoxicity, 48 h growth inhibition (cell protein content); assay type: cell-based; conditions: for pIC50: read-out: in vitro IC50
Procedure: The mouse L1210 leukemia cells (RPM1, USA) are grown in RPM1 1640 medium supplemented with 5% fetal calf serum and penicillin (1,000,000 units litre) plus streptomycin (100 mg/litre) in controlled air-5% CO2 humidified atmosphere at 37° C. L1210 mouse leukemia cells are seeded at a density of 5.10^4 cells/ml. The tested compounds after being dissolved in 50% ethanol are added, at four different concentrations, to the cell suspensions. […] 1974, 24, 1971.

P388 lymphotic leukemia = test: In vivo antileukemic evaluation, P388 leukemia in BDF1 mice
Procedure: BDF1 mice are injected ip with 10^6 P388 lymphotic leukemia cells on day O and treated ip on days 1-5 in accordance with the protocols described by the National Cancer Institute: Geran, R. I.; Greenberg, R. H.; MacDonald, M. M.; Schumacher, A. M.; Abbot, B. J. Cancer Chemother, Re., Part 3, 1972,3,1. The mean survival time (MST) for each treatment group (eight mice) is calculated and the percent of T/C was determined by using the following formula: % T/C=(MST treated)/(MST control) 100.

[2] = L1210 cells, 48 h, 50% growth inhibition
[3] = L1210 cells, 48 h, 50% growth inhibition, read-out: in vitro IC50 (μg/ml)
[4] = P388 ip, treated ip days 1-5, at opt dose, first or only value
[5] = P388 ip, treated ip days 1-5, at opt dose, repeated independent multidose assay (footnote c)

In the case of CCN(CC)CCNc1ccc2ncn3c4ccc(OC)cc4c(=O)c1c23.Cl.Cl [Example 1, 5-[[2-(Diethylamino)ethyl]amino]-8-methoxyimidazo[4,5,1-de] acridin-6-one Dihydrochloride], the pIC50 [1, 2] was 5.74, the IC50 [1, 3] was 0.78 µg/mL and the “% T/C (mean survival time treated/control)” value (P388 lymphotic leukemia; [4]) was 183%. For the same compound, the “% T/C (mean survival time treated/control), second value” (P388 lymphotic leukemia; [5]) was 209%.

In the case of COc1ccc2c(c1)c(=O)c1c(NCCN(C)C)ccc3ncn2c31 [Example 2], the IC50 ([1]; L1210, 48 h, read-out: in vitro IC50 (μM)) was 1.6 µM, the IC50 ([1]; L1210, 48 h, read-out: in vitro IC50 (μg/ml)) was 0.65 µg/mL and the “% T/C (mean survival time treated/control)” value (P388 lymphotic leukemia; [4]) was 177%. The “% T/C (mean survival time treated/control), second value” (P388 lymphotic leukemia; [5]) was 136%.

In the case of COc1ccc2c(c1)c(=O)c1c(NCCN(C)C)ccc3nc(C)n2c31 [Example 3], the pIC50 [1, 2] was 6.11, the IC50 [1, 3] was 0.34 µg/mL and the “% T/C (mean survival time treated/control)” value (P388 lymphotic leukemia; [4]) was 127%.

CCN(CC)CCNc1ccc2nc(C)n3c4ccc(OC)cc4c(=O)c1c23 [Example 4] was tested, and the pIC50 [1, 2] was 5.81, the IC50 [1, 3] was 0.7 µg/mL and the “% T/C (mean survival time treated/control)” value (P388 lymphotic leukemia; [4]) was 136%. The “% T/C (mean survival time treated/control), second value” (P388 lymphotic leukemia; [5]) was 120%.

For COc1ccc2c(c1)c(=O)c1c(NCCCN(C)C)ccc3ncn2c31 [Example 5], the pIC50 [1, 2] was 5.08, the IC50 [1, 3] was 3.5 µg/mL and the “% T/C (mean survival time treated/control)” value (P388 lymphotic leukemia; [4]) was 164%.

With COc1ccc2c(c1)c(=O)c1c(NCCCN(C)C)ccc3nc(C)n2c31 [Example 6] the pIC50 [1, 2] was 5.49, the IC50 [1, 3] was 1.4 µg/mL and the “% T/C (mean survival time treated/control)” value (P388 lymphotic leukemia; [4]) was 136%.

With CCN(CC)CCCNc1ccc2ncn3c4ccc(OC)cc4c(=O)c1c23 [Example 7] the pIC50 [1, 2] was 5.60, the IC50 [1, 3] was 1.1 µg/mL and the “% T/C (mean survival time treated/control)” value (P388 lymphotic leukemia; [4]) was 142%.

With CCN(CC)CCCNc1ccc2nc(C)n3c4ccc(OC)cc4c(=O)c1c23 [Example 8] the pIC50 [1, 2] was 5.85, the IC50 [1, 3] was 0.7 µg/mL and the “% T/C (mean survival time treated/control)” value (P388 lymphotic leukemia; [4]) was 108%.

CN(C)CCNc1ccc2ncn3c4ccc(O)cc4c(=O)c1c23 [Example 9] was tested, and the pIC50 [1, 2] was 7.32, the IC50 [1, 3] was 0.02 µg/mL and the “% T/C (mean survival time treated/control)” value (P388 lymphotic leukemia; [4]) was 210%. For the same compound, the “% T/C (mean survival time treated/control), second value” (P388 lymphotic leukemia; [5]) was 210%.

Cc1nc2ccc(NCCN(C)C)c3c(=O)c4cc(O)ccc4n1c23 [Example 10] was tested, and the pIC50 [1, 2] was 6.87, the IC50 [1, 3] was 0.06 µg/mL and the “% T/C (mean survival time treated/control)” value (P388 lymphotic leukemia; [4]) was 200%. For the same compound, the “% T/C (mean survival time treated/control), second value” (P388 lymphotic leukemia; [5]) was 250%.

For CCN(CC)CCNc1ccc2ncn3c4ccc(O)cc4c(=O)c1c23 [Example 11], the pIC50 [1, 2] was 7.51, the IC50 [1, 3] was 0.013 µg/mL and the “% T/C (mean survival time treated/control)” value (P388 lymphotic leukemia; ip) was 211%. For the same compound, the “% T/C (mean survival time treated/control), second value” (P388 lymphotic leukemia; ip) was 175%.

In the case of CCN(CC)CCNc1ccc2nc(C)n3c4ccc(O)cc4c(=O)c1c23 [Example 12], the pIC50 [1, 2] was 6.60, the IC50 [1, 3] was 0.11 µg/mL and the “% T/C (mean survival time treated/control)” value (P388 lymphotic leukemia; [4]) was 280%. For the same compound, the “% T/C (mean survival time treated/control), second value” (P388 lymphotic leukemia; [5]) was 290%.

CN(C)CCCNc1ccc2ncn3c4ccc(O)cc4c(=O)c1c23 [Example 13] was tested, and the pIC50 [1, 2] was 7.47, the IC50 [1, 3] was 0.014 µg/mL and the “% T/C (mean survival time treated/control)” value (P388 lymphotic leukemia; [4]) was 183%.

In the case of Cc1nc2ccc(NCCCN(C)C)c3c(=O)c4cc(O)ccc4n1c23 [Example 14], the pIC50 [1, 2] was 6.64, the IC50 [1, 3] was 0.1 µg/mL and the “% T/C (mean survival time treated/control)” value (P388 lymphotic leukemia; [4]) was 255%.

For CCN(CC)CCCNc1ccc2ncn3c4ccc(O)cc4c(=O)c1c23 [Example 15], the pIC50 [1, 2] was 6.74, the IC50 [1, 3] was 0.08 µg/mL and the “% T/C (mean survival time treated/control)” value (P388 lymphotic leukemia; [4]) was 309%. For the same compound, the “% T/C (mean survival time treated/control), second value” (P388 lymphotic leukemia; [5]) was 230%.

CCN(CC)CCCNc1ccc2nc(C)n3c4ccc(O)cc4c(=O)c1c23 [Example 16] was tested, and the pIC50 [1, 2] was 6.05, the IC50 [1, 3] was 0.4 µg/mL and the “% T/C (mean survival time treated/control)” value (P388 lymphotic leukemia; [4]) was 150%. The “% T/C (mean survival time treated/control), second value” (P388 lymphotic leukemia; [5]) was 155%.
